Results taken from patent publication US11369588B2, “NADPH production by the 10-formyl-THF pathway, and its use in the diagnosis and treatment of disease” (The Trustees of Princeton University, priority 2014, dated 2022).
Where “and” joins values, the source holds several entries; their conditions need not be identical. Equal entries are not always repeated.

How the values were obtained:
[1] = tested on: oxPPP; assay: oxPPP tracing: NADPH labeling from 1-2H-glucose in 3T3-L1 cells; type: cell-based; conditions: proliferating 3T3-L1 cells, tracer fed 2 h
Experimental: In one embodiment, PPP activity is measured by incubating cultured adipocytes (e.g., 3T3-L1 adipocytes) in the presence of 1-^14C-glucose versus 6-^14C-glucose and detecting the released ^14CO2. The oxPPP releases C1 of glucose as CO2. The 6-^14C-glucose corrects for release of C1 by other pathways, because C1 and C6 are rendered identical by the triose phosphate isomerase step in glycolysis. After determining the oxPPP flux, the cells are provided with 1-^2H-glucose, which selectively labels NADPH in the first step (G6PDH) of the PPP.
Two complimentary methods were used to measure oxPPP activity in the proliferating and differentiating 3T3-L1 cells. First, cells were cultured in the presence of 1-^14C-Glucose versus 6-^14C-Glucose and the release of ^14CO2 was detected. The oxPPP releases C1 of glucose as CO2. The 6-^14C-Glucose corrects for release of C1 by other pathways, because C1 and C6 are rendered identical by the triose phosphate isomerase step in glycolysis. […] Next, cells were fed 1-^2H-Glucose, which selectively labels NADPH in the first step (G6PDH) of the oxPPP, and can therefore be used to determine the fraction of NADPH made by the oxPPP. In the proliferating cells, M+1 NADPH exceeded M+1 NADP+ by ˜16% (FIG. 18). […] In contrast, in the differentiating adipocytes, there was much less NADPH labeling from 1-^2H-Glucose. […]

[2] = tested on: malic enzyme; assay: Tracing hydride flux through malic enzyme with 2H tracers in 3T3-L1 cells (LC-MS labeling of malate, aspartate, NADPH, fatty acids); type: cell-based; conditions: for fraction of M+1 aspartate / fraction of M+1 malate / fraction of M+2 malate: differentiating 3T3-L1 adipocytes day 5; for fatty acid 2H-labeling, M+0 fraction / fatty acid 2H-labeling, M+1 fraction / fatty acid 2H-labeling, M+2 fraction: tracer 5 days
Text: To more directly establish the contribution of malic enzyme to NADPH production, cells are provided with the ^2H-labeled succinate analogue, 2,2,3,3-^2H-dimethyl-succinate, and deuterium labeling is followed through the C2 hydride of malate to NADPH and finally to newly synthesized fatty acid molecules (FIGS. 15A-15F). Although any suitable labeled molecule may be used to trace hydride flux from malate to NADPH and subsequently into fat, it is preferred to use 2,2,3,3-^2H-dimethyl-succinate for the above purpose.
NADPH labeling at its redox active hydride was analyzed by comparing the M+1 fraction of NADPH to NADP+.
Converting the NADPH labeling fraction from 2,2,3,3-^2H-dimethyl-succinate into the fractional NADPH contribution of malic enzyme requires two important corrections: (i) fractional ^2H-labeling of malate's C2 hydride and (ii) the malic enzyme deuterium kinetic isotope effect (approximately 1.5).
2,2,3,3-^2H-dimethyl succinate was used to track hydride transfer mediated by malic enzyme. Tracer addition increased the cellular concentration of succinate without markedly perturbing other metabolite concentrations or fluxes. Labeling from 2,2,3,3-^2H-dimethyl succinate was followed through the C2 hydride of malate to NADPH and finally to newly synthesized fatty acids. NADPH labeling at its redox active hydride was analyzed by comparing the M+1 fraction of NADPH to NADP^+. […] Adjustment for the kinetic isotope effect in hydride transfer from NADPH to fat (˜1.1) (Yuan, Z. et al. (1984) “Elementary Steps in the Reaction Mechanism of Chicken Liver Fatty Acid Synthase,” 259:6748-6751) yields an associated cytosolic NADPH labeling fraction of 3.2%±0.5%, in excellent agreement with the directly measured whole cell NADPH labeling.
The NADPH labeling fraction from [2,2,3,3-^2H] dimethyl succinate was converted into the fractional NADPH contribution of malic enzyme is accordance with Equation 15. Forward flux from 2,2,3,3-^2H-succinate results in 2,3-^2H-malate, i.e., M+2 malate. The observed fraction of M+2 malate was, however, only 1.5%. The larger peak was M+1 malate (10.9%). Reverse flux through malate dehydrogenase can produce M+1 malate labeled at the C3 hydride (3-^2H-malate). As fumarate is symmetric, fumarase will interconvert 3-^2H-malate and 2-^2H-malate. Because malic enzyme will produce NADPH selectively from malate labeled at the C2 hydride, the relative abundance of 2-^2H-malate versus 3-^2H-malate was determined. 3-^2H-malate (and also 2,3-^2H-malate) yields M+1 oxaloacetate and aspartate, whereas 2-^2H-malate yields unlabeled oxaloacetate and aspartate. […] Summing 2-^2H-malate and 2,3-^2H-malate, the fraction of malate that is capable of making NADPH was 7.9%. Thus, while 2,2,3,3-^2H-dimethyl succinate labeled only approximately 3.2% of NADPH, after adjusting for the extent of malate labeling and the malic enzyme kinetic isotope effect, the fraction of NADPH generated via malic enzyme was calculated to be is approximately 60%.
4-^2H-glucose was therefore employed as a metabolic tracer. Cells were grown in 6 cm tissue culture dishes, and the labeled medium was replaced every day, and additionally 2 hours before extracting metabolites. Because labeling of glycolytic and oxPPP intermediates and the redox active hydride of NADPH reaches steady state over approximately 5 min, where for TCA intermediates this can take several hours, to ensure steady-state labeling, oxPPP tracing with 1-^2H-glucose and 1,2-^13C-glucose is performed for a minimum of 30 min and other labeling experiments for a minimum of 12 h. Metabolism is then quenched and metabolites extracted by aspirating media and immediately adding 2 mL −80° C. 80:20 methanol:water. After 20 min. of incubation on dry ice, the resulting mixture was scraped, collected into a centrifuge tube, and centrifuged at 10000 g for 5 min. Insoluble pellets were re-extracted with 1 mL −80° C. 80:20 methanol: water on dry ice. […]

[3] = tested on: methylene-THF oxidation pathway; assay: Folate pathway tracing: NADPH labeling from 2,3,3-2H-serine in 3T3-L1 cells; type: cell-based
[4] = tested on: HEK293T cells; conditions: 3 days, DMEM no serine, 5 mM glycine instead of 0.4 mM
[5] = tested on: HEK293T cells; conditions: non-growing HEK293T cells, 150 μM H2O2, 5 h
Experimental: Total cytosolic NADPH turnover was measured based on the absolute oxPPP flux divided by the fractional contribution of the oxPPP to total NADPH as measured using NADP2H formation from 1-^2H-glucose. Mean±SD, N=3.

Structure (SMILES)	fraction of M+1 aspartate [2]	fraction of M+1 malate [2]	fraction of M+2 malate [2]	fatty acid 2H-labeling, M+0 fraction ([2]; differentiating 3T3-L1 cells)	fatty acid 2H-labeling, M+1 fraction ([2]; differentiating 3T3-L1 cells) [%]	fatty acid 2H-labeling, M+2 fraction ([2]; differentiating 3T3-L1 cells) [%]	fatty acid 2H-labeling, M+0 fraction ([2]; proliferating 3T3-L1 cells) [%]	further results
[2H]C1(O)OC(CO)C(O)C(O)C1O (stereo not drawn) [1-^2H-Glucose]								excess of M+1 NADPH over M+1 NADP+ [1]: ~16%
[2H]C([2H])(C(=O)OC)C([2H])([2H])C(=O)OC [2,2,3,3-^2H-dimethyl succinate]	6.0%	10.9%	1.5%	approximately 60%	~30	~10	100	fraction of 2-2H-malate ([2]; M+1 plus M+2 malate minus M+1 aspartate, differentiating 3T3-L1 adipocytes): approximately 6.4%; fraction of NADPH generated via malic enzyme ([2]; after adjusting for malate labeling and malic enzyme kinetic isotope effect, normoxic differentiating 3T3-L1 adipocytes): approximately 60%; fraction of malate capable of making NADP2H (2-2H-malate plus 2,3-2H-malate) ([2]; differentiating 3T3-L1 adipocytes): 7.9%; average hydride 2H-labeling fraction of a set of abundant fatty acids ([2]; differentiating 3T3-L1 adipocytes, newly synthesized fatty acids only): 2.87%±0.31%; total adipocyte (whole cell) NADPH labeled at redox active hydride ([2]; differentiating (day 5) 3T3-L1 adipocytes, tracer fed 24 h): 3.4%±0.3%
[2H]C([2H])(O)[C@]([2H])(N)C(=O)O [2,3,3-^2H-serine]								labeling of NADPH at its redox active hydride [3]: approximately 3%
[2H][C@@]1(O)[C@@H](CO)OC(O)[C@H](O)[C@@H]1O (stereo partly drawn) [4-^2H-glucose]	4.3% and 4.3 ± 0.1%	12.3% and 12.3 ± 0.1%	0.3% and 0.3 ± 0.0%	approximately 60%	~35	~5	100	
NCC(=O)O [glycine]								cell growth (relative cell number) [4]: inhibit cell growth; relative NADPH/NADP+ ratio [4]: decrease the NADPH/NADP+ ratio
OO [hydrogen peroxide]								total cytosolic NADPH production rate [5]: 5.5 nmol/µL/h
